From doi:10.1101/2025.11.18.689169v1 (bioRxiv, 2025)

Key:
[1] = tested on: 4T1 mouse breast cancer cells; experiment: Cellular uptake, confocal microscopy; type: cell-based; details: 4T1 cells, 10 µM ICG labeled PAs, 2 hours, 37°C, confocal microscope
[2] = tested on: 4T1 mCherry mammary tumors; experiment: Live IVIS imaging of tumor accumulation and tumor-to-background ratio; type: in vivo, Balb/c mice; details: 50 nmole intravenous, after background cleared over time, day 2
[3] = tested on: 4T1 mCherry mammary tumors; experiment: Biodistribution by ICG fluorescence of tissue homogenates; type: in vivo, Balb/c mice; details: 50 nmole intravenous, tissue homogenates 2 days after injection
[4] = free ICG; cited from earlier work

| Compound | cellular uptake / membrane retention [1] | tumor-to-background ratio (TBR) [2] | tumor to liver ratio [3] | blood circulation half-life [4] [min] |
| --- | --- | --- | --- | --- |
| GGGHGDCDD [C16] | significant retention in the membrane | > 10 |  |  |
| GGGHGDCDD [C12] |  | 6 |  |  |
| GGGHGDCDD [C18] | significant retention in the membrane | > 10 | ~3.3 |  |
| CC1(C)C(/C=C/C=C/C=C/C=C2\N(CCCCS(=O)(=O)O)c3ccc4ccccc4c3C2(C)C)=[N+](CCCCS(=O)(=O)[O-])c2ccc3ccccc3c21 [ICG, indocyanine green] |  |  |  | < 5 |
